# Key:
# [1] = Dose required to inhibit proliferation of human peripheral blood mononuclear cells (PMBC); format: functional
# HL-60 = experiment: Dosage required for differentiation of HL-60 cells to monocytes; format: functional, Homo sapiens
# Mus musculus = experiment: Dose required to induce hypercalcemia after administration in mice; format: functional
SMILES,Dose [1] [nM],Dose (HL-60) [nM],Dose (Mus musculus) [µg/kg]
C=C1/C(=C\C=C2/CCC[C@]3(C)[C@@H]2CC[C@H]3[C@@H](C)CCCC(C)(C)O)C[C@@H](O)C[C@@H]1O,100,100,–
C=C1/C(=C\C=C2/CCC[C@]3(C)[C@@H]([C@H](C)CCCC(C)(C)O)CC[C@@H]23)C[C@@H](O)C[C@@H]1O [CALCITRIOL],–,–,0.1
